From publication PMC8111429 (2021)

Assays:
[1] = test system: F21T (DNA, G4) GGGTTAGGGTTAGGGTTAGGG; test: FRET melting; conditions: K+ 10 mM, Na+ 10 mM, Li+ 90 mM; KCl–LiCl–cacodylate, pH 7.0; LDR 5; DNA 0.2 mM [sic] (0.2 µM, ligand 1 µM)
[2] = test system: FmycT (DNA, G4) TGAGGGTGGGTAGGGTGGGTA; test: FRET melting; conditions: K+ 10 mM, Na+ 10 mM, Li+ 90 mM; KCl–LiCl–cacodylate, pH 7.0; LDR 5; DNA 0.2 mM [sic] (0.2 µM, ligand 1 µM)
[3] = test system: 22AG (DNA, G4) AGGGTTAGGGTTAGGGTTAGGG; test: photometric (absorption) titration; conditions: K+ 110 mM; K-phosphate buffer, pH 7.0, 5% v/v DMSO; ligand 20 µM; per site
[4] = test system: Fa2T (DNA, G4) ACAGGGTGTACAGGGTGT; test: FRET melting; conditions: K+ 10 mM, Na+ 10 mM, Li+ 90 mM; KCl–LiCl–cacodylate, pH 7.0; LDR 5; DNA 0.2 mM [sic] (0.2 µM, ligand 1 µM)
[5] = test system: FkitT (DNA, G4) AGGGAGGGCGCTGGGAGGAGGG; test: FRET melting; conditions: K+ 10 mM, Na+ 10 mM, Li+ 90 mM; KCl–LiCl–cacodylate, pH 7.0; LDR 5; DNA 0.2 mM [sic] (0.2 µM, ligand 1 µM)

SMILES | ∆Tm [1] [°C] | ∆Tm [2] [°C] | Kb [3] | ∆Tm [4] [°C] | ∆Tm [5] [°C]
COc1c(Oc2ccc([N+](=O)[O-])cc2)ccc2cc3[n+](cc12)CCc1cc2c(cc1-3)OCO2 | 3.5 ± 0.5 | 1.8 ± 0.5 | 7.9 ± 0.3 × 10^5 M^-1 |  | 
COc1c(Oc2ccccc2)ccc2cc3[n+](cc12)CCc1cc2c(cc1-3)OCO2 | 3.2 ± 0.5 | 0.4 ± 0.5 | 8.7 ± 0.2 × 10^5 M^-1 |  | 0.1 ± 0.5

Other lines, results leading:

∆Tm [1] [°C] | ∆Tm [2] [°C] | Kb [3] | ∆Tm [4] [°C] | ∆Tm [5] [°C] | SMILES
1.8 ± 0.5 | 2.1 ± 0.5 | 5.2 ± 0.3 × 10^5 M^-1 |  |  | COc1c(Oc2ccc(Br)cc2)ccc2cc3[n+](cc12)CCc1cc2c(cc1-3)OCO2
2.6 ± 0.5 |  | 7.1 ± 0.2 × 10^5 M^-1 | 1.2 ± 0.5 |  | COc1c(Oc2ccc(Cl)cc2)ccc2cc3[n+](cc12)CCc1cc2c(cc1-3)OCO2
3.9 ± 0.5 |  | 7.2 ± 0.2 × 10^5 M^-1 | 0.1 ± 0.5 | 0.6 ± 0.5 | COc1ccc(Oc2ccc3cc4[n+](cc3c2OC)CCc2cc3c(cc2-4)OCO3)cc1
